Consider 29 compounds from patent US9624215B2, “Amine derivative or salt thereof” (TOYAMA CHEMICAL CO., LTD., priority 2012, dated 2017).

The structures appear in SMILES notation.

In assay [1] the test system is normal human neonatal foreskin epidermal keratinocytes (NHEK-F). The experiment in a line: Cell proliferation inhibition test. The assay is classed as cell-based. The following applies: Keratinocyte, 72 h, NHEK-F cells, three days incubation, ATPlite or CellTiterGlo, read-out: IC50 (concentration of the compound at which the cell count is reduced by 50%). Put shortly:
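NHEK-F keratinocytes, 2×10^3 per well in Humedia-EG2, plated overnight, then exposed to compound for three days. Cell count by ATPlite or CellTiterGlo luminescence; inhibition = 100 − (treated/untreated count)×100, IC50 as 50% reduction concentration.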
For orientation: Cellular ATP, detected with luciferase, serves as a proxy for viable cell number.

For assay [2], the system named is TNFα production in LPS-stimulated Raw264.7 cells. Briefly: TNFα production inhibition test. The class given is cell-based. The following applies: Mus musculus, test compound 1 μmol/L, LPS 1 μg/mL, 16 hours, ELISA, read-out: Inhibition rate of TNFα production. The method, then: 7×10^4 mouse macrophage-derived cell line Raw264.7 cells were suspended in 100 μL of RPMI1640 medium containing 10% fetal bovine serum, plated in a 96-well plate and incubated overnight. The culture supernatant was removed and the test compound diluted in RPMI1640 medium containing 1% fetal bovine serum (final concentration: 1 μmol/L) was added. One hour after the addition, LPS (B4:0111) (Sigma-Aldrich, L2630) was added to a final concentration of 1 μg/mL. 16 hours after the stimulation, the culture supernatant was collected and the amount of TNFα produced in the culture supernatant was determined using ELISA kit (R&D Systems, MTA00B).
The inhibition rate was calculated from the following formula. Inhibition rate (%)=100−(amount of TNFα produced in the presence of test compound/amount of TNFα produced in the absence of test compound)×100
In general terms: ELISA stands for enzyme-linked immunosorbent assay.

In assay [3] the test system is TPA-induced ear edema and acanthosis in Balb/c mice. The experiment in a line: Mouse TPA-induced ear-swelling model. The class given is in vivo. The following applies: topical, 240 h, 1% w/v solution, 20 μL applied to ear once a day from day 0 to day 9, female Balb/c mice, read-out: Inhibition rate of change in ear thickness on day 10. The method, then: Seven-week-old female Balb/c mice (Charles River Laboratories Japan) were used. 20 μL of a 20 ng/mL solution of TPA (Wako Pure Chemical Industries, 162-23591) dissolved in 5% DMSO/acetone was applied to the outer side of the mouse ear on day 0, day 2, day 4, day 7 and day 9 to induce ear edema and acanthosis. The test compound was dissolved in a 5% DMSO/acetone solution (concentration: 1% w/v) and 20 μL of the resulting solution was applied to the outer side of the ear once a day from day 0 to day 9. For the control group, a 5% DMSO/acetone solution was similarly applied. The TPA solution and the test compound solution were mixed and applied on the days for TPA application (day 0, day 2, day 4, day 7 and day 9). The ear thickness was chronologically measured on days 0-4 and days 7-10 using a micrometer (Mitutoyo, MDC-25MJT). The change in ear thickness and the inhibition rate were determined by the following formulas. Change in ear thickness=(ear thickness measured on day 10)−(ear thickness measured on day 0 before TPA application) Inhibition rate (%)=100−(change in ear thickness for test compound group/change in ear thickness for control group)×100

With `O=C(O)c1cc(Cl)ccc1Nc1ccc2c(ccn2-c2ccc(F)cc2)c1` [Example 331, 5-chloro-2-((1-(4-fluorophenyl)-1H-indol-5-yl)amino)benzoic acid], the IC50 in assay [1] is at most 10 nM. The inhibition at 1 µM in assay [2] was at least 50%.

For `O=C(O)c1cc(Cl)ccc1Nc1ccc2c(c1)oc(=O)n2Cc1ccccc1` [Example 61, 2-((3-benzyl-2-oxo-2,3-dihydrobenzo[d]oxazol-6-yl)amino)-5-chlorobenzoic acid], the IC50 in assay [1] was 10 to 100 nM. Also, the inhibition at 1 µM in assay [2] is at least 50%.

As for `O=C(O)c1cc(Cl)ccc1Nc1ccc2c(ccn2-c2ccccc2F)c1` [Example 335, 5-chloro-2-((1-(2-fluorophenyl)-1H-indol-5-yl)amino)benzoic acid], in assay [1], the IC50 was at most 10 nM. Besides, the inhibition at 1 µM in assay [2] was at least 50%.

As to `O=C(O)c1cc(Cl)ccc1Nc1ccc2c(ccn2Cc2cccc(N3CCOCC3)c2)c1` [Example 14, 5-chloro-2-((1-(3-morpholinobenzyl)-1H-indol-5-yl)amino)benzoic acid], in assay [1], the IC50 was at most 10 nM. In addition, the inhibition at 1 µM in assay [2] is at least 50%.

In the case of `O=C(O)c1cc(Cl)ccc1Nc1ccc2c(c1)CCC(=O)N2Cc1ccccc1` [Example 267, 2-((1-benzyl-2-oxo-1,2,3,4-tetrahydroquinolin-6-yl)amino)-5-chlorobenzoic acid], the inhibition at 1 µM in assay [2] was at least 50%.

As for `O=C(O)c1cc(C2CC2)ccc1Nc1ccc2c(ccn2Cc2ccc(N3CCOCC3)cc2)c1` [Example 196, 5-cyclopropyl-2-((1-(4-morpholinobenzyl)-1H-indol-5-yl)amino)benzoic acid], the IC50 in assay [1] lay within 10 to 100 nM. Further, the inhibition at 1 µM in assay [2] is at least 50%.

Turning to `Cn1cc(-c2ccccc2)c2cc(Nc3ncc(C4CC4)cc3C(=O)O)ccc21` [Example 153], the IC50 in assay [1] lay within 10 to 100 nM. The inhibition in vivo at 1 % strength in assay [3] was at least 20%.

For `O=C(O)c1cc(C2CC2)cnc1Nc1cccc2c1ccn2Cc1ccccc1` [Example 208, 2-((1-benzyl-1H-indol-4-yl)amino)-5-cyclopropylnicotinic acid], the IC50 in assay [1] was 10 to 100 nM. Besides, in assay [3], the inhibition in vivo at 1 % strength was at least 20%.

On to `Cn1ccc2cc(Nc3ncc(C4CC4)cc3C(=O)O)cc(-c3ccccc3F)c21` [Example 464, 5-cyclopropyl-2-((7-(2-fluorophenyl)-1-methyl-1H-indol-5-yl)amino)nicotinic acid], for which the IC50 in assay [1] was at most 10 nM. In addition, the inhibition in vivo at 1 % strength in assay [3] was at least 20%.

As to `Cc1ccc(Nc2ccc3c(ccn3Cc3ccccc3)c2)c(C(=O)O)c1` [Example 206, 2-((1-benzyl-1H-indol-5-yl)amino)-5-methylbenzoic acid], in assay [1], the IC50 was at most 10 nM. Further, the inhibition in vivo at 1 % strength in assay [3] was at least 20%.

For the compound `NC(=O)c1ccc(-n2ccc3cc(Nc4ccc(C5CC5)cc4C(=O)O)ccc32)cc1` [Example 106-2, 2-((1-(4-Carbamoylphenyl)-1H-indol-5-yl)amino)-5-cyclopropylbenzoic acid], the inhibition at 1 µM in assay [2] is at least 50%.

For the compound `O=C(O)c1cc(Cl)ccc1Nc1ccc2c(c1)[nH]c(=O)n2Cc1ccccc1` [Example 63, 2-((1-benzyl-2-oxo-2,3-dihydro-1H-benzo[d]imidazol-5-yl)amino)-5-chlorobenzoic acid], the inhibition at 1 µM in assay [2] was at least 50%.

Take `O=C(O)c1cc(Cl)ccc1Nc1ccc2c(c1)CCN(Cc1ccccc1)C2=O` [Example 265, 2-((2-benzyl-1-oxo-1,2,3,4-tetrahydroisoquinolin-6-yl)amino)-5-chlorobenzoic acid]: the inhibition at 1 µM in assay [2] was at least 50%.

Regarding `N#Cc1ccc(-n2ccc3cc(Nc4ccc(C5CC5)cc4C(=O)O)ccc32)cc1` [Example 106-1, 2-((1-(4-Cyanophenyl)-1H-indol-5-yl)amino)-5-cyclopropylbenzoic acid], the inhibition at 1 µM in assay [2] is at least 50%.

`O=C(O)c1cc(C2CC2)cnc1Nc1cccc2c1ccn2CC1CCC1` [Example 439, 2-((1-(cyclobutylmethyl)-1H-indol-4-yl)amino)-5-cyclopropylnicotinic acid]: the IC50 in assay [1] was at most 10 nM. Besides, the inhibition in vivo at 1 % strength in assay [3] is at least 20%.

For the compound `O=C(O)c1cc(C2CC2)cnc1Nc1ccc2c(ccn2Cc2cccc(F)c2F)c1` [Example 642, 5-cyclopropyl-2-((1-(2,3-difluorobenzyl)-1H-indol-5-yl)amino)nicotinic acid], the IC50 in assay [1] is at most 10 nM. In assay [3], the inhibition in vivo at 1 % strength was at least 20%.

As for `O=C(O)c1cc(C2CC2)cnc1Nc1ccc2c(ccn2Cc2cc(F)ccc2F)c1` [Example 641, 5-cyclopropyl-2-((1-(2,5-difluorobenzyl)-1H-indol-5-yl)amino)nicotinic acid], the IC50 in assay [1] was at most 10 nM. In addition, the inhibition in vivo at 1 % strength in assay [3] is at least 20%.

As for `O=C(O)c1cc(C2CC2)cnc1Nc1ccc2c(ccn2CCc2ccccc2)c1` [Example 619, 5-cyclopropyl-2-((1-(2-phenylethyl)-1H-indol-5-yl)amino)nicotinic acid], the IC50 in assay [1] is at most 10 nM. In assay [3], the inhibition in vivo at 1 % strength was at least 20%.

Consider `Cc1ccc(Cn2ccc3cc(Nc4ncc(C5CC5)cc4C(=O)O)ccc32)cc1` [Example 457, 5-cyclopropyl-2-((1-(4-methylbenzyl)-1H-indol-5-yl)amino)nicotinic acid], for which the IC50 in assay [1] was at most 10 nM. The inhibition in vivo at 1 % strength in assay [3] was at least 20%.

Take `Cc1ccccc1Cn1ccc2cc(Nc3ncc(C4CC4)cc3C(=O)O)ccc21` [Example 455, 5-cyclopropyl-2-((1-(2-methylbenzyl)-1H-indol-5-yl)amino)nicotinic acid]: the IC50 in assay [1] was at most 10 nM. Moreover, the inhibition in vivo at 1 % strength in assay [3] is at least 20%.

For the compound `O=C(O)c1cc(C2CC2)cnc1Nc1ccc2ccn(CC3CCCCC3)c2c1` [Example 523, 2-((1-(cyclohexylmethyl)-1H-indol-6-yl)amino)-5-cyclopropylnicotinic acid], the IC50 in assay [1] was at most 10 nM. Further, the inhibition in vivo at 1 % strength in assay [3] is at least 20%.

Consider `CC(C)Cn1ccc2cc(Nc3ncc(C4CC4)cc3C(=O)O)cc(-c3ccccc3)c21` [Example 224, 5-cyclopropyl-2-((1-isobutyl-7-phenyl-1H-indol-5-0)amino)nicotinic acid], for which the IC50 in assay [1] is at most 10 nM. For the same compound, the inhibition in vivo at 1 % strength in assay [3] was at least 20%.

On to `Cc1cc2c(ccn2Cc2ccccc2)cc1Nc1ncc(C2CC2)cc1C(=O)O` [Example 585, 2-((1-benzyl-6-methyl-1H-indol-5-yl)amino)-5-cyclopropylnicotinic acid], for which, in assay [1], the IC50 was at most 10 nM. Further, the inhibition in vivo at 1 % strength in assay [3] was at least 20%.

Take `Cn1ccc2cc(Nc3ncc(C4CC4)cc3C(=O)O)cc(CCC3CC3)c21` [Example 470, 5-cyclopropyl-2-((7-(2-cyclopropylethyl)-1-methyl-1H-indol-5-yl)amino)nicotinic acid]: the IC50 in assay [1] is at most 10 nM. Besides, the inhibition in vivo at 1 % strength in assay [3] is at least 20%.

`O=C(O)c1cc(C2CC2)ccc1Nc1ccc2c(c1)CN(Cc1ccccc1)C2=O` [Example 287, 2-((2-benzyl-1-oxoisoindolin-5-yl)amino)-5-cyclopropylbenzoic acid]: in assay [2], the inhibition at 1 µM is at least 50%.

Take `Cn1ccc2cc(Nc3ncc(C4CC4)cc3C(=O)O)cc(-c3ccccc3)c21` [Example 222, 5-cyclopropyl-2-((1-methyl-7-phenyl-1H-indol-5-yl)amino)nicotinic acid]: the IC50 in assay [1] was at most 10 nM. In assay [3], the inhibition in vivo at 1 % strength is at least 20%.

Turning to `Cn1nccc1-c1cc(Nc2ncc(C3CC3)cc2C(=O)O)cc2ccn(C)c12` [Example 596, 5-cyclopropyl-2-((1-methyl-7-(1-methyl-1H-pyrazol-5-yl)-1H-indol-5-yl)amino)nicotinic acid], in assay [1], the IC50 is at most 10 nM. Moreover, the inhibition in vivo at 1 % strength in assay [3] is at least 20%.

For `Cn1cc(-c2ccccc2F)c2cc(Nc3ncc(C4CC4)cc3C(=O)O)ccc21` [Example 557, 5-cyclopropyl-2-((3-(2-fluorophenyl)-1-methyl-1H-indol-5-yl)amino)nicotinic acid], the IC50 in assay [1] was 10 to 100 nM. In assay [3], the inhibition in vivo at 1 % strength was at least 20%.

`CCn1ccc2cc(Nc3ncc(C4CC4)cc3C(=O)O)cc(CCCOC)c21` [Example 598, 5-cyclopropyl-2-((1-ethyl-7-(3-methoxypropyl)-1H-indol-5-yl)amino)nicotinic acid]: in assay [1], the IC50 fell in the range of 10 to 100 nM. For the same compound, the inhibition in vivo at 1 % strength in assay [3] is at least 20%.

For orientation: inhibition means the percentage by which the read-out fell short of the control.
